In brackets after ≈: the same amount, converted by molar mass. Activity calls are given as the source filed them. No cut-off for these calls is given here.
Experiments:
[1] = Metabolic stability in mouse liver microsomes assessed as parent compound remaining at 1 uM up to 30 mins in presence of NADPH by LC-MS/MS analysis; type: ADME, microsome; details: read-out: Stability
[2] = Cytotoxicity against HEK293 cells expressing human P2X7 receptor assessed as cell survival at 10 uM by MTT assay relative to control; type: cell-based; details: read-out: Survival
[3] = Ratio of drug level in zebrafish brain to blood at 10 mg/kg, po administered via gavage measured 0.5 hrs post compound administration by LC-MS/MS analysis; type: ADME, organism-based, Danio rerio
[4] = target: T1, P2X purinoceptor 7 (Homo sapiens, UniProt Q99572); test: Antagonist activity at human P2X7 receptor expressed in HEK293 cells assessed as inhibition of BzATP-induced EtBr uptake after 2 hrs by fluorescence assay relative to control; type: cell-based
T1 sequence (Q99572 whole entry): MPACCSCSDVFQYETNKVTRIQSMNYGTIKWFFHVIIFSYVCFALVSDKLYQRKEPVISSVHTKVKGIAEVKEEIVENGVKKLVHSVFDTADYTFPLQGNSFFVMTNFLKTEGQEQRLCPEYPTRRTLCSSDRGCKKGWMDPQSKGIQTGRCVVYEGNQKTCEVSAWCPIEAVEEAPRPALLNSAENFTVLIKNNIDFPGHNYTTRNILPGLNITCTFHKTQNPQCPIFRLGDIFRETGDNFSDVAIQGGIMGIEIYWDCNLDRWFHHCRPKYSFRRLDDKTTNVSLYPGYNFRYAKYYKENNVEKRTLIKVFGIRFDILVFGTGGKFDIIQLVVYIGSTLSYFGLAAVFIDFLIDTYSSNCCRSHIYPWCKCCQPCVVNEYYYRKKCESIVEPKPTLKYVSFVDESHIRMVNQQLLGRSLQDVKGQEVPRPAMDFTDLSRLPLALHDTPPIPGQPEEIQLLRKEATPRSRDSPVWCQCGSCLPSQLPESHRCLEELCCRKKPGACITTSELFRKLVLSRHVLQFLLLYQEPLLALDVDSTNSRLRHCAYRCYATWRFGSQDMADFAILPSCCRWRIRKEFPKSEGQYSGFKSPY

[5] = Antiproliferative activity against human TS15-88 cells after 24 to 72 hrs by MTS assay; type: functional, cell-based
[6] = Inhibition of neurosphere formation in human TS15-88 cells assessed as decrease in sphere size at 50 uM after 5 days by microscopic analysis relative to control; type: functional; details: 120 h
[7] = Increase in MYC mRNA expression in human TS15-88 cells after 72 hrs by qRT-PCR analysis relative to control; type: functional
[8] = Increase in CD133 mRNA expression in human TS15-88 cells after 72 hrs by qRT-PCR analysis relative to control; type: functional
[9] = target: T1, P2X purinoceptor 7; test: Antagonist activity at P2X7 in LPS/IFN gamma differentiated human THP-1 cells assessed as inhibition of BzATP-induced IL-1beta release preincubated for 30 mins followed by BzATP stimulation for 30 mins by ELISA; type: cell-based
[10] = Metabolic stability in rat liver microsomes assessed as parent compound remaining at 1 uM up to 30 mins in presence of NADPH by LC-MS/MS analysis; type: ADME, microsome; details: read-out: Stability
[11] = target: T2, P2X purinoceptor 4 (Homo sapiens) (UniProt Q99571); test: Antagonist activity at human P2X4 receptor expressed in 1321N1 cells assessed as inhibition of ATP-induced calcium flux at 1 uM measured for 30 secs at 0.4 secs intervals by Flou-4-AM dye based fluorescence assay relative to control; type: cell-based
T2 sequence (whole entry): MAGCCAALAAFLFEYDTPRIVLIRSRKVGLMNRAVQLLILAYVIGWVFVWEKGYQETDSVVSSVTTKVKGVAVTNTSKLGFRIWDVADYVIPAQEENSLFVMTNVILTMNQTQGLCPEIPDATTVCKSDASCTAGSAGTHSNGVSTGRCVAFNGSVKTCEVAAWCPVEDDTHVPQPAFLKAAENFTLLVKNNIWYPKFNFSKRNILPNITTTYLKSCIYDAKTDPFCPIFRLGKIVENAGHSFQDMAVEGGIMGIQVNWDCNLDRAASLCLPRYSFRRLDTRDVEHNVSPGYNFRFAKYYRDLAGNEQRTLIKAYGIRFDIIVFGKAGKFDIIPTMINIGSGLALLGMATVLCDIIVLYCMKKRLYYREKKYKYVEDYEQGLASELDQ

[12] = organism: Homo sapiens; test: Antiproliferative activity against human TS15-88 cells at 50 uM after 72 hrs by MTS assay; type: functional, cell-based
[13] = Equilibrium solubility of the compound in DMSO after 16 hrs; type: physicochemical
[14] = target: T3, P2X purinoceptor 2 (Homo sapiens) (UniProt Q9UBL9); test: Antagonist activity at human P2X2 receptor expressed in 1321N1 cells assessed as inhibition of ATP-induced calcium flux at 1 uM measured for 30 secs at 0.4 secs intervals by Flou-4-AM dye based fluorescence assay relative to control; type: cell-based
T3 sequence (whole entry): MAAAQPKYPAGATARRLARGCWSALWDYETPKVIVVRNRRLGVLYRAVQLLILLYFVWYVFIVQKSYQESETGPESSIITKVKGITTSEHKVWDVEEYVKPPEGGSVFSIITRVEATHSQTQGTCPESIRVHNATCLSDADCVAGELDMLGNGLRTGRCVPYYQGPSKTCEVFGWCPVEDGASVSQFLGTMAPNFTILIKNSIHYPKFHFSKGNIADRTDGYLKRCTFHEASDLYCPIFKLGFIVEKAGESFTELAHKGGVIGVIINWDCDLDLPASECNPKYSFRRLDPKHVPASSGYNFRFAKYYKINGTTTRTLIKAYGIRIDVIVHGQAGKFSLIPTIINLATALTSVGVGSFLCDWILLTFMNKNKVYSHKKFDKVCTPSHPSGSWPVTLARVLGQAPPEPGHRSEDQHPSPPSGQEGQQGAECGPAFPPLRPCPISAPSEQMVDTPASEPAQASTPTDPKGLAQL

[15] = Drug level in zebrafish brain at 10 mg/kg, po administered via gavage measured 0.5 hrs post compound administration by LC-MS/MS analysis; type: ADME, organism-based, Danio rerio; details: read-out: Drug uptake
[16] = target: T4, P2X purinoceptor 7 (Homo sapiens) (UniProt Q99572); test: Antagonist activity at human P2X7 receptor expressed in HEK293 cells assessed as inhibition of BzATP-induced EtBr uptake at 1 uM after 2 hrs by fluorescence assay relative to control; type: cell-based
T4 sequence (whole entry): T1 sequence (Q99572 whole entry)

[17] = target: T4, P2X purinoceptor 7 (Homo sapiens); test: Antagonist activity at human P2X7 receptor expressed in HEK293 cells assessed as inhibition of BzATP-induced EtBr uptake at 10 uM after 2 hrs by fluorescence assay relative to control; type: cell-based

Compound O=C(CC12CC3CC(CC(C3)C1)C2)Nc1cccc2nc(Cl)ccc12 has a remaining at 0.5 h, 1 µM [1] of 0.1%, a viability at 10 µM [2] of 98% and a Kp at 0.5 h [3] of 2.03. The IC50 [4] was 4 nM, the IC50 [5] was 40000 nM and the inhibition at 50 µM [6] was > 50%. It also gave an Activity [7] of 41%, an Activity [8] of 30% and an IC50 [9] of 7 nM. The remaining at 0.5 h, 1 µM [10] was 0.06%, the inhibition [11] was 4% and the Activity [12] was “Active”. The solubility at 16 h [13] was 15.6 µM (≈ 5.54 µg/mL), the inhibition [14] was 7% and the concentration at 0.5 h [15] was 425 ng/g. It also gave an inhibition [16] of 89% and an inhibition [17] of 97%.
